Experimental data from patent US12503426B2, “Synthetic derivatives of oleoyl-lysophosphatidylinositol (oleoyl-LPI) and uses thereof” (LIPOVEXA SRL, priority 2017, dated 2025).

Columns and labels:
NCI-H716 cells = experiment: GLP-1 secretion by NCI-H716 cells (Examples 2-8); format: cell-based, human; details: NCI-H716 cells, inhibitor 1 hour before oleoyl-LPI (PD98059 50 μM; H89 10 μM)
Description: NCI-H716 cells were maintained in 75 cm^2 tissue culture flasks (Corning) in RPMI 1640 media containing 2.0 mM L-glutamine, 1.5 g/L sodium bicarbonate, 10 mM HEPES buffer, 1.0 mM sodium pyruvate, and 4.5 g/L glucose and supplemented with 10% FBS at a 37° C. and 5% CO2. When plating for experiment, cell adhesion and endocrine differentiation were initiated by growing cells in dishes coated with growth factor reduced Matrigel diluted at the ratio of 1:2 (Becton Dickinson, Bedford, MA) in high-glucose DMEM, 10% FBS, 2 mM glutamine, 100 IU/ml penicillin, and 100 μg/ml streptomycin as described previously by De Bruine, a P., Dinjens, W. N., van der Linden, E. P., Pijls, M. M., Moerkerk, P. T., & Bosman, F. T. (1993) The American Journal of Pathology, Vol 142(3), pp 773-782, the disclosure of which is incorporated herein in its entirety by reference.
(§1) Approximately 80,000 Glutag cells were plated in poly-L-lysine-coated 24-well culture plates and grown to about 80% confluence. NCI-H716 cells were seeded on growth factor reduced Matrigel™ (Becton Dickinson, Bedford, MA) in DMEM medium, supplemented with 10% FBS the day before the experiment. For NCI-H716 cells, approximately 25,000 cells were needed for this secretion experiment in order to have good stimulation with lower basal GLP-1 secretion. In brief, Glutag and NCI-H716 cells were washed twice and then incubated for 2 h with FBS-free DMEM containing 1% (M:C) alone (negative control), 10 μM forskolin as positive control (Sigma-Aldrich), or with different concentrations of Oleoyl-LPI. M:C was used as a solvent to prepare stock solutions of fatty acid derivatives and inhibitors. For secretion experiments, medium and cells were collected separately.
(§2) In separate studies, GLUTag or NCI-H716 cells were pre-treated for 1 hour with medium alone (1% DMSO, negative control), PD98059 (50 μM; Sigma Chemical Co.), H89 (10 μM; Santa Cruz) followed by treatment with oleoyl-LPI (20 μM), OEA (10 μM), AR231453(1 μM), PMA (10 μM) or forskolin (10 μM, positive control) in the presence of inhibitors, as appropriate, for about 2 h. Medium GLP-1 secretion was calculated as total GLP-1 content of medium normalised for the basal secretion of the control.
(§3) In order to investigate the role of different LPI species in enteroendocrine cells, murine (Glutag) and human (NCI-H716) L-cells were stimulated with the following different species of LPI: Arachidonyl-LPI, Stearoyl-LPI, Heptadecenoyl-LPI and oleoyl-LPI, as well as with OEA and LPC. Experiments were performed in duplicate, n=4 and the level of total GLP-1 was measured by ELISA.

CREB = CREB phosphorylation by Western blot; format: cell-based; details: H89 10 μM pre-treatment or oleoyl-LPI in control cells
Description: When cell cultures reached 80-90%, media were removed and cells were washed twice with 1×PBS. The cells were lysed in 150 μl (for one well of a 6 well plate) of Triton X-100 lysis buffer, containing phosphatase inhibitor cocktail (1:1000) (Sigma Aldrich, UK) and protease inhibitor (1:1000, Sigma Aldrich, UK). Cells were detached with scrapers and lysate were collected and centrifuged at 10,000 rpm, 4° C. for 5 minutes. The supernatant was then transferred to a 1.5 ml microcentrifuge tube and used for protein quantification. Cell lysates were stored at −20° C. for longer storage. All lysates were prepared on ice.
Non-specific antibody binding was prevented by incubating the nitrocellulose membrane in 5% milk in PBS-0.05% Tween-20 (v/v) for 30 minutes on a rotating plate. The membrane was then washed in PBS-0.05% Tween-20 (v/v) and then incubated with the primary antibody diluted in PBS-0.05% Tween-20 (v/v) on a rotating plate overnight at 4° C. After 24 hours, the membrane was washed 5× for 5 minutes with PBS-0.05% Tween-20 (v/v), and then incubated on a rotating plate with the appropriate secondary antibody for 1 hour at room temperature. […]

Glutag cells = experiment: GLP-1 secretion by Glutag cells; format: cell-based, murine; details: Glutag cells, inhibitor 1 hour before oleoyl-LPI (PD98059 50 μM; H89 10 μM)
Description: Glutag cells were maintained in low glucose DMEM (Sigma) (1 g/L) containing 2.0 mM L-glutamine, 1.0 mM sodium pyruvate and supplemented with 10% FBS, 100 IU/ml penicillin, 100 μg/ml streptomycin at a 37° C. and 5% CO2.
as §1, §2, §3

human GPR119 = target: T1, human GPR119 (Homo sapiens, UniProt Q8TDV5); experiment: cAMP assay in GPR119 transfected COS-7 cells; format: cell-based; details: COS-7 cells expressing human GPR119, agonists 30 min; read-out: EC50, production of cAMP
T1 construct: expressed in transfected cells; host or cells: COS-7 cells, calcium phosphate transfection
T1 sequence (Q8TDV5 1-335): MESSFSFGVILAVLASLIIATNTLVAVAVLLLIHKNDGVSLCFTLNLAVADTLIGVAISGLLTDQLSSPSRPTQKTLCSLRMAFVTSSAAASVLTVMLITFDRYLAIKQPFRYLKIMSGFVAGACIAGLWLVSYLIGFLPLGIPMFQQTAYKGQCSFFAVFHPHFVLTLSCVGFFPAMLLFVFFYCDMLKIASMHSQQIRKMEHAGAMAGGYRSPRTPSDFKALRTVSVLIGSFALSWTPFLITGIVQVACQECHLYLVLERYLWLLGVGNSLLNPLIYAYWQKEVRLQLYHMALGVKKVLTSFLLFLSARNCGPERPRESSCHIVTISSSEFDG
Description: COS-7 cells were cultured in Dulbecco's modified Eagle medium (DMEM) 1885 supplemented with 10% FBS, […] L-glutamine and 180 IU/ml penicillin+[…] streptomycin (Pen Strep) (Life Technologies, CA, USA) at 37° C. and 10% CO2. The COS-7 cells were transiently transfected with GPR119 or pcDNA by the calcium phosphate transfection method for 5 hours in 37° C., 10% CO2 as described by Kissow H, Hartmann B, Hoist J J, Viby N E, Hansen L S, Rosenkilde M M, Hare K J, Poulsen S S. Regul Pept. 2012. Vol: 179(1-3), pp 91-100; the disclosure of which is incorporated herein in its entirety by way of reference.
COS-7 cells were transfected with about 40 μg GPR119 DNA or pcDNA3 per […] flask. One day after transfection, the cells were seeded out (about 35,000 cell/well) in a 96 well white plate (Perkin Elmer, Massachusetts, USA). The cells were washed twice the following day and incubated for 30 min, at 37° C. with HBS and 1 mM IBMX (Sigma Aldrich, USA). Agonists were added for 30 min in the assay medium. The Hithunter® cAMP XS+ (DiscoveRx, Fremont, USA) was carried out by following the manufacturer's instructions.
Accordingly, the work outlined in this example evaluates whether activation of GPR119 by oleoyl-LPI in enteroendocrine L cell affect the proglucagon gene expression by monitoring the CREB activity. […]

[1] = test system: colonic cells of the GI tract obtained from guinea pig; experiment: Ex vivo GLP-1 biosynthesis and secretion, guinea pig GI tract cells; format: cell-based; details: Cavia porcellus; ex vivo incubation 2 hours, quadruplicates
Description: To test for this, a pregnant guinea pig was anesthetized with isoflurane and sacrificed via intra-cardial injection of pentobarbital. Colon and rectum were quickly collected and intraluminal content washed out with ice-cold HBSS. After a thorough cleansing from the faecal material, and gentle scraping of the internal mucosa, the tissue was minced into 3 to 5-millimetre pieces and resuspended into 50 ml of ice cold HBSS. Pellet was spun down and washed again in 50 ml of ice-cold HBSS. Supernatant was carefully removed, and the epithelial fragments were then resuspended for 30 minutes at 37° C. into a 5 ml solution of HEPES 25 mM, collagenase-P 1 mg/ml in HBSS, pH 7.4 at 37° C.
The tissue was then pelleted and resuspended further for about 30 to 40 additional minutes at 37° C. within a 10 ml solution of 1 mg/ml collagenase-P as above.
After the digestion, about 40 ml of pre-warmed DMEM complete media was added (FBS 10%, glucose 4.5 g/L, glutamine 4 mM, sodium pyruvate 1 mM, HEPES 25 mM, sodium bicarbonate 3.7 g/L, Pen/Strep 1× and Ciprofloxacin 10 μg/ml pH 7.4 at 37° C.). Crypts and individual cells were isolated with a […] nylon strainer, spun down at 200 g for 5 minutes, resuspended into 10 ml of DMEM complete media and plated into 20 wells of a 24-well plate coated with a 3D gel of 3 mg/ml Matrigel (BD, Biosciences, Oxford, UK). After one day of incubation at 37° C. 5% CO2 in a humidified incubator, cells were washed with 500 μl of warm HBSS, and treated with 250 μl DMEM serum free (Complete medium without FBS) additioned with KR-62436 10 μg/ml and individually the following drugs or compounds: Forskolin and IBMX (20 μM each), oleoyl-LPI, and the two oleoyl-LPI analogs and/or derivatives ps297b (prepared as described in example 13) and ps316a (prepared as described in example 22) were all tested in quadruplicate at 20 μM.
After a 2-hour long incubation at 37 C 5% CO2, the supernatants were collected on ice, and quickly stored at […]. Active GLP-1 levels (7-37 amide and 7-36) were quantified on 50 μl of supernatant with an ELISA commercial kit (EMD Millipore). DMSO was used as a negative control, the combination of Forskolin and IBMX was included as positive control activators GLP-1. GLP-1 levels measured were standardized against the DMSO control.
The EC50 levels each one of oleoyl-LPI, compound ps297b and compound ps316a were also measured in quadruplicates at the conclusion of the 2 hour incubation. Guinea pig cells obtained as described above were also incubated with […] in quadruplicates and subjected to 2-hour long incubation at 37 C 5% CO2 as described above and EC50 levels measured.

[2] = test system: Glutag and NCI-H761 cells; experiment: Dose response of GLP-1 release at different glucose concentrations; format: cell-based
Description: Panels A and B show results of dose response of GLP-1 release in different glucose concentration of 5 mM (panel A) and 10 mM (panel B). The dose response of GLP-1 released was normalised of number of cells measured in parallel. Glutag and […] cells were incubated with vehicle alone, oleoyl-LPI, OEA, LPC forskolin (10 μM) and PMA (1 μM) as positive control for 2 hours. Results were normalised as percentage of cell treated with vehicle (control). For panels A and B data are shown as means±SEM of n=3 from independent experiments performed in duplicates. Student t-test: *p<0.05, **P<0.01. Panel C show results of dose response of GLP-1 release in a glucose concentration of 20 mM.
as §1
To determine the effect of glucose in oleoyl-LPI induced GLP-1 secretion, the inventors conducted dose-response experiment in the presence of 5 mM and 10 mM glucose in the secretion medium with the results outlined in FIG. 2A and FIG. 2B.

Structure (SMILES)	oleoyl-LPI induced GLP-1 secretion with inhibitor pre-treatment (NCI-H716 cells)	phosphorylation of CREB (CREB)	oleoyl-LPI induced GLP-1 secretion with inhibitor pre-treatment (Glutag cells)	EC50 (human GPR119) [µM]	EC50 [1] [µM]	GLP-1 secretion ([2]; 5 mM glucose, 50 μM, 2 hours, percentage of vehicle control) [%]	GLP-1 secretion, dose response ([2]; 10 mM glucose)
O=S(=O)(NCCNC/C=C/c1ccc(Br)cc1)c1cccc2cnccc12 [H89]	observable reduction in GLP-1 secretion	inhibited	observable reduction in GLP-1 secretion				
CCCCCCCC/C=C\CCCCCCCC(=O)NCCO [OEA, Oleoylethanolamide]				0.422	30.7	178±15	dose-dependently stimulate GLP-1 secretion in similar manner of oleoyl-LPI
